Reference: US20230024438A1, “INHIBITORS OF HIF-2ALPHA” (ARCUS BIOSCIENCES, INC., priority 2019, published 2023)
Read-outs that look alike come from different tables or passages of the source.

Key:
[1] = target: T1, HIF-2α (Homo sapiens, UniProt Q99814); assay: HIF-2α Luciferase Reporter Assay; format: cell-based
T1 construct: endogenous in cells; host or cells: 786-O cells (ATCC CRL-1932) stably carrying the Cignal Lenti HIF Luc Reporter
Protocol: Stable cell lines were generated by transducing 786-O cells (ATCC, CRL-1932) with Cignal Lenti HIF Luc Reporter lentivirus (CLS-007L, Qiagen) according to the manufacturer's guidelines. In brief, 0.3×10^6 786-0 cells were transduced with lentivirus at a Multiplicity of Infection (MOI) of 25 for 24 hours. After transduction, cells were replenished with fresh RPMI 1640 Medium (Cat. No. 11875085, Thermo Fisher,) supplemented with 10% FBS (Cat. No. A3160502, Gibco), 2 mM GlutaMax (Cat. No. 35050-061, Invitrogen) and 100 units of penicillin and 100 μg of streptomycin/mL (Cat. No 15070063, Thermo Fisher) for another 24 hours. Antibiotic selection was performed in cell media containing 4 μg/mL of Puromycin. After 7 days of antibiotic selection, stable pools of surviving cells were expanded and used in a luciferase reporter assay.
On day one, 20 uL of HIF-Luc-786-0 cells in OptiMem (Cat. No. 31985088, Thermo Fisher) were seeded into each well of a 384 well white opaque plate (Corning 3570) and incubated at 37° C. and 5% CO2. Twenty microliters of 2× test compounds in OptiMem were added to cells after 4 hours of incubation. Final assay conditions comprised 20,000 cells per well in 1% DMSO with test compound concentrations ranging from 50 uM to 0 uM. After 20 hours incubation at 37° C. and 5% CO2, luciferase activity was determined using ONE-Glo Luciferase Assay Reagent (E6110, Promega) following the manufacture's recommended procedure. Briefly, 40 uL of ONE-Glo luciferase reagents were added to each well and luciferase signals were measured using an Envision 2102 Multilabel Reader. Percentage maximum activity in each test well was calculated based on DMSO (maximum activity) and no cell control wells (baseline activity). The IC50 values of the test compounds were determined from compound dose response curves fitted using a standard four parameter fit equation.

[2] = target: T2, Histidine tagged HIF-2α protein containing PAS-B domain (240-350) (Homo sapiens, UniProt Q99814); assay: HIF-2α Scintillation Proximity Assay (SPA); format: binding
T2 construct: Histidine tagged HIF-2α protein containing PAS-B domain (240-350) was prepared and purified in house; made in house
T2 sequence (Q99814 240-350): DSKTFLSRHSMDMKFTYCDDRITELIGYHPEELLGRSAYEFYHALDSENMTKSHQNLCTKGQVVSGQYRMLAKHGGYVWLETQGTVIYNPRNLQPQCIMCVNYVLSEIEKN
Protocol: Tritium labeled compound N-(3-chlorophenyl)-4-nitro-2,1,3-benzoxadiazol-5-amine was obtained from American Radiolabeled Chemicals Inc. and copper chelate PVT SPA beads were from PerkinElmer (Cat #RPNQ0095). Histidine tagged HIF-2α protein containing PAS-B domain (240-350) was prepared and purified in house.
Compounds solubilized in DMSO were dispensed into a white 384-well polystyrene non-binding flat clear bottom plate (Greiner Bio-One, Cat #781903) using an HP D300 dispenser. Ten microliters of HIS-tagged HIF-2α protein in buffer (25 mM Tris-HCl, pH 7.4, 150 mM NaCl, 0.15% BSA and 0.001% Tween 20) was added to the compound wells and allowed to incubate for 1 hour at room temperature. Ten microliters of SPA bead mix were added to the wells and incubated for an additional 45 minutes, followed by 10 ul of ^3H-tracer solution. Final assay conditions comprised 50 nM HIF-2α protein, 25 nM radiolabeled tracer and 3 ug beads per well with compounds in 2% DMSO. The plate was read using a MicroBeta Microplate Counter (PerkinElmer) for luminescence detection. The IC50 values of the test compounds were determined from compound dose response curves fitted using a standard four parameter fit equation and are reported in Table 1.

[3] = HIF-Luc-786-0 cells, 20 hours incubation, luciferase activity, read-out: HIF-2α Luciferase Assay
[4] = 50 nM HIF-2α protein, 25 nM radiolabeled tracer, read-out: HIF-2α Scintillation Proximity Assay

T1 sequence (Q99814 whole entry): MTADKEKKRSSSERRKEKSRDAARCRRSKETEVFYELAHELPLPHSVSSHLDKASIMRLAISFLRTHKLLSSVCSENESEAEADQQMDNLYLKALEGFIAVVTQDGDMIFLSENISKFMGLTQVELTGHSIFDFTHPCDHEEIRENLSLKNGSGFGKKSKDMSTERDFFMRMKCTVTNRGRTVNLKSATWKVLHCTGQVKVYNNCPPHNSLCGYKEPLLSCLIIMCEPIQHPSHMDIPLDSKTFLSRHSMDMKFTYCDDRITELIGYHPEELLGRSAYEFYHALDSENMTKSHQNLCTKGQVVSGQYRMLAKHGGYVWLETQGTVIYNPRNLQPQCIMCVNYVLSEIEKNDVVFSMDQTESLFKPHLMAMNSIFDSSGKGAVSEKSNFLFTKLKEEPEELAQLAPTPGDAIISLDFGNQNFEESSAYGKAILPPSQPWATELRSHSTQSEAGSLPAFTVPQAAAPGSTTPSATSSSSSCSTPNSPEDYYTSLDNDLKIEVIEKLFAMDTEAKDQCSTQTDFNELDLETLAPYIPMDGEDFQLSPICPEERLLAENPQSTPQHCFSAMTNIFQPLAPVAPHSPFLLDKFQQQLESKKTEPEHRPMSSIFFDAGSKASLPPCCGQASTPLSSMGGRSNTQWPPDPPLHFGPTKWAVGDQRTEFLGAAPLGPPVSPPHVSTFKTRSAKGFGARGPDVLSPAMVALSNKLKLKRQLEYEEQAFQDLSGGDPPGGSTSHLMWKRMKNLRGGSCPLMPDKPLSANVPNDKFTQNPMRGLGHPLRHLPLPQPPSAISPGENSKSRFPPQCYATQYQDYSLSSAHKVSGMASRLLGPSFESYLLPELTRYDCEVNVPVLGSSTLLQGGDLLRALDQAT

SMILES | IC50 [1, 3] [µM] | IC50 [2, 4] [µM] | IC50 [1] [µM] | IC50 [2] [µM]
O=S(=O)(c1ccc(Nc2cc(F)cc(Cl)c2)c2cn[nH]c12)C(F)(F)F [Example 47, (3-Chloro-5-fluorophenyl)[7-(trifluoromethylsulfonyl)-1H-indazol-4-yl]amine] | > 10 | 1 to 10 | – | –
CS(=O)(=O)c1ccc(Oc2cc(F)cc(Cl)c2)c2c(Cl)n[nH]c12 [Example 9, 3-Chloro-4-(3-chloro-5-fluorophenoxy)-7-methanesulfonyl-1H-indazole] | 1 to 10 | > 10 | – | –
N#Cc1cc(F)cc(Oc2ccc(S(=O)(=O)C(F)(F)F)c3[nH]nc(C#N)c23)c1 [Example 60, 4-(3-Cyano-5-fluorophenoxy)-7-trifluoromethanesulfonyl-1H-indazole-3-carbonitrile] | 1 to 10 | > 10 | – | –
O=S(=O)(c1ccc(Oc2cccc(Cl)c2)c2c(Cl)n[nH]c12)C(F)(F)F [Example 63, 3-Chloro-4-(m-chlorophenoxy)-7-(trifluoromethylsulfonyl)-1H-indazole] | > 10 | 1 to 10 | – | –
Fc1cc(Cl)cc(Oc2cnc(C(F)(F)F)c3[nH]ncc23)c1 [Example 69, 4-(3-Chloro-5-fluorophenoxy)-7-(trifluoromethyl)-1H-pyrazolo[3,4-c]pyridine] | 1 to 10 | 1 to 10 | – | –
CS(=O)(=O)c1ccc(Oc2cc(F)cc(C#N)c2)c2c(C#N)n[nH]c12 [Example 10, 4-(3-Cyano-5-fluorophenoxy)-7-methanesulfonyl-1H-indazole-3-carbonitrile] | 1 to 10 | > 10 | – | –
O=S(=O)(c1ccc(Oc2cc(F)cc(F)c2)c2cn[nH]c12)C(F)(F)F [Example 25, 4-(3,5-Difluorophenoxy)-7-trifluoromethanesulfonyl-1H-indazole] | < 1 | < 1 | – | –
N#Cc1cc(Oc2ccc(S(=O)(=O)C(F)(F)F)c3[nH]ncc23)ccc1F [Example 36, 2-Fluoro-5-[[7-(trifluoromethylsulfonyl)-1H-indazol-4-yl]oxy]benzonitrile] | > 10 | 1 to 10 | – | –
N#Cc1ccc(Oc2ccc(S(=O)(=O)C(F)(F)F)c3[nH]ncc23)cc1 [Example 19, p[7-(Trifluoromethylsulfonyl)-1H-indazol-4-yloxy]benzonitrile] | 1 to 10 | > 10 | – | –
O=S(=O)(c1ccc(Oc2ccccc2)c2cn[nH]c12)C(F)(F)F [Example 16, 4-Phenoxy-7-(trifluoromethylsulfonyl)-1H-indazole] | 1 to 10 | > 10 | – | –
O=S(=O)(c1ccc(Oc2ccc(F)c(Cl)c2)c2cn[nH]c12)C(F)(F)F [Example 38, 4-(3-Chloro-4-fluorophenoxy)-7-(trifluoromethylsulfonyl)-1H-indazole] | 1 to 10 | 1 to 10 | – | –
O=S(=O)(c1ccc(Oc2ccc(Cl)cc2)c2cn[nH]c12)C(F)(F)F [Example 17, 4-(p-Chlorophenoxy)-7-(trifluoromethylsulfonyl)-1H-indazole] | 1 to 10 | > 10 | – | –
O=S(=O)(c1ccc(Oc2cncc(Cl)c2)c2cn[nH]c12)C(F)(F)F [Example 23, 4-[(5-Chloropyridin-3-yl)oxy]-7-trifluoromethanesulfonyl-1H-indazole] | 1 to 10 | 1 to 10 | – | –
COc1ccc(Oc2ccc(S(=O)(=O)C(F)(F)F)c3[nH]ncc23)cc1 [Example 20, 4-(p-Methoxyphenoxy)-7-(trifluoromethylsulfonyl)-1H-indazole] | > 10 | > 10 | – | –
O=S(=O)(c1ccc(Oc2cccc(F)c2)c2cn[nH]c12)C(F)(F)F [Example 31, 4-(3-Fluorophenoxy)-7-(trifluoromethylsulfonyl)-1H-indazole] | 1 to 10 | 1 to 10 | – | –
O=S(=O)(c1ccc(Oc2ccc(F)c(F)c2)c2cn[nH]c12)C(F)(F)F [Example 37, 4-(3,4-Fifluorophenoxy)-7-(trifluoromethylsulfonyl)-1H-indazole] | 1 to 10 | 1 to 10 | – | –
O=S(=O)(c1ccc(NC2CC(F)(F)C2)c2cn[nH]c12)C(F)(F)F [Example 57, N-(3,3-Difluorocyclobutyl)-7-trifluoromethanesulfonyl-1H-indazol-4-amine] | > 10 | 1 to 10 | – | –
N#Cc1cncc(Oc2ccc(S(=O)(=O)C(F)(F)F)c3[nH]ncc23)c1 [Example 24, 5-[(7-Trifluoromethanesulfonyl-1H-indazol-4-yl)oxy]pyridine-3-carbonitrile] | 1 to 10 | 1 to 10 | – | –
CS(=O)(=O)c1ccc(Nc2cc(F)cc(C#N)c2)c2c(F)n[nH]c12 [Example 2, 3-Fluoro-5-[(3-fluoro-7-methanesulfonyl-1H-indazol-4-yl)amino]benzonitrile] | 1 to 10 | > 10 | – | –
N#Cc1cccc(Oc2ccc(S(=O)(=O)C(F)(F)F)c3[nH]nc(Cl)c23)c1 [Example 62, m-[3-Chloro-7-(trifluoromethylsulfonyl)-1H-indazol-4-yloxy]benzonitrile] | > 10 | < 1 | – | –
O=S(=O)(c1ccc(NCc2cc(Cl)cc(Cl)c2)c2cn[nH]c12)C(F)(F)F [Example 56, N-[(3,5-dichlorophenyl)methyl]-7-(trifluoromethylsulfonyl)-1H-indazol-4-amine] | > 10 | > 10 | – | –
N#Cc1cc(F)cc(Nc2ccc(S(=O)(=O)C(F)(F)F)c3[nH]ncc23)c1 [Example 45, 3-Fluoro-5-[(7-trifluoromethanesulfonyl-1H-indazol-4-yl)amino] benzonitrile] | 1 to 10 | 1 to 10 | – | –
N#Cc1cc(F)cc(Oc2ccc(S(=O)(=O)C(F)(F)F)c3[nH]ncc23)c1 [Example 15, 3-Fluoro-5-[(7-trifluoromethanesulfonyl-1H-indazol-4-yl)oxy]benzonitrile] | – | – | < 1 | < 1
O=S(=O)(c1ccc(Oc2ccc(Cl)c(F)c2)c2cn[nH]c12)C(F)(F)F [Example 33, 4-(4-Chloro-3-fluorophenoxy)-7-(trifluoromethylsulfonyl)-1H-indazole] | > 10 | > 10 | – | –
O=S(=O)(c1ccc(NCc2ccc(F)cc2C(F)(F)F)c2cn[nH]c12)C(F)(F)F [Example 55, N-[[4-fluoro-2-(trifluoromethyl)phenyl]methyl]-7-(trifluoromethylsulfonyl)-1H-indazol-4-amine] | > 10 | > 10 | – | –
CS(=O)(=O)c1ccc(Oc2cc(F)cc(C#N)c2)c2c(Cl)n[nH]c12 [Example 8, 3-[(3-Chloro-7-methanesulfonyl-1H-indazol-4-yl)oxy]-5-fluorobenzonitrile] | 1 to 10 | > 10 | – | –
O=S(=O)(c1ccc(Oc2cccc(C(F)(F)F)c2)c2cn[nH]c12)C(F)(F)F [Example 32, 4-[3-(Trifluoromethyl)phenoxy]-7-(trifluoromethylsulfonyl)-1H-indazole] | > 10 | > 10 | – | –
N#Cc1cc(F)cc(Oc2ccc(S(=O)(=O)C(F)(F)F)c3cn[nH]c23)c1 [Example 70, 3-Fluoro-5-[4-(trifluoromethylsulfonyl)-1H-indazol-7-yloxy]benzonitrile] | 1 to 10 | 1 to 10 | – | –
N#Cc1cc(Nc2ccc(S(=O)(=O)C(F)(F)F)c3[nH]ncc23)ccc1F [Example 48, 2-Fluoro-5-[7-(trifluoromethylsulfonyl)-1H-indazol-4-ylamino]benzonitrile] | > 10 | > 10 | – | –
O=S(=O)(c1ccc(NCc2ccc(F)cc2)c2cn[nH]c12)C(F)(F)F [Example 52, N-[(4-fluorophenyl)methyl]-7-(trifluoromethylsulfonyl)-1H-indazol-4-amine] | > 10 | > 10 | – | –
